Values joined by “and” are separate entries in the source; they are usually repeats but may differ in a detail not shown here. Equal entries are not always repeated. Where two headings read alike, the source gives them in different places.
Tests used:
CK1δkd = target: T1, CK1δkd (Rattus norvegicus, UniProt Q06486); experiment: In vitro kinase assay, CK1δ kinase domain; assay type: biochemical; conditions: for inhibition of CK1δkd in initial screen: inhibitor 10 μM, 10 μM ATP (Fig. 1a); for mode of inhibition: inhibitor at IC50 concentration, ATP 0.01-0.5 mM (Fig. 6)
T1 construct: Recombinant CK1δ kinase domain (CK1δkd, NEB, Frankfurt am Main, Germany); purchased NEB, Frankfurt am Main, Germany
T1 sequence (Q06486 9-277 limits assumed): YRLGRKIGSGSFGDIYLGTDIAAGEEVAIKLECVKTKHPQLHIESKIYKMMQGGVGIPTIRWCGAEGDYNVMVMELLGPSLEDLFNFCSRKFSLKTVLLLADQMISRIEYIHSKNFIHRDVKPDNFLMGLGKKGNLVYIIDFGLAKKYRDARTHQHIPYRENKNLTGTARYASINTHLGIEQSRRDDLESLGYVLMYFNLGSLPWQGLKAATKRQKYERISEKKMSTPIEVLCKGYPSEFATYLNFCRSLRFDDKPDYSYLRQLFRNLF

GST-rat CK1δ = target: T2, GST-rat CK1δ (Rattus norvegicus, UniProt Q06486); experiment: In vitro kinase assay, GST-rat CK1δ; assay type: biochemical; conditions: for GST-wt CK1δ activity in the presence of inhibitor: inhibitor at its determined IC50 concentration (Fig. 7)
T2 construct: made in house; host or cells: bacteria (pGEX-2T)
T2 sequence (Q06486 whole entry): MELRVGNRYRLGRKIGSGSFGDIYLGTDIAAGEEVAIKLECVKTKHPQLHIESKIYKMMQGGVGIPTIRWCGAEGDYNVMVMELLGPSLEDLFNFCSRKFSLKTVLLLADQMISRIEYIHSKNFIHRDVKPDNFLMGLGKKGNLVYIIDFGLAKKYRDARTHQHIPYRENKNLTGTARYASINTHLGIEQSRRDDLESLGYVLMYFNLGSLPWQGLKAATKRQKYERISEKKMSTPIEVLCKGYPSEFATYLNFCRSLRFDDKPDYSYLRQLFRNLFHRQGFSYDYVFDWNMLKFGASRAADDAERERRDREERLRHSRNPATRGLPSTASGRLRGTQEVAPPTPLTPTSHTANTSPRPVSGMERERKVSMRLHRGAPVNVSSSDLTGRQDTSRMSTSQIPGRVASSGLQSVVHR

human CK1ε = target: T3, human CK1ε (Homo sapiens, UniProt P49674); experiment: In vitro kinase assay, CK1ε; assay type: biochemical; conditions: for inhibition of CK1ε in initial screen: inhibitor 10 μM, 10 μM ATP (Fig. 1b)
T3 construct: purchased Invitrogen, Karlsruhe, Germany
T3 sequence (P49674 whole entry): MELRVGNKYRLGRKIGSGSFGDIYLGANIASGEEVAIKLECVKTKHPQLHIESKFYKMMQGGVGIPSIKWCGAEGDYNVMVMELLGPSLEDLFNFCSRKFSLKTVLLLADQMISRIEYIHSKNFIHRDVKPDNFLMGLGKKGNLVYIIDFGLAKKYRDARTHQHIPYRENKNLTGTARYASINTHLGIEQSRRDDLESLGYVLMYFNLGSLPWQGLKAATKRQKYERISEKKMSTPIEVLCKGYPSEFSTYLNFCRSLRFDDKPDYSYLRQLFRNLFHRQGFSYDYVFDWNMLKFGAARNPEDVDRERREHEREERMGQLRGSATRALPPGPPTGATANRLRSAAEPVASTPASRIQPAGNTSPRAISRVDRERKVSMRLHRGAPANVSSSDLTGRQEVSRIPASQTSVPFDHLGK

GST-mouse CK1δTV1 = target: T4, GST-mouse CK1δTV1 (Mus musculus, UniProt Q9DC28); experiment: In vitro kinase assay, GST-mouse CK1δTV1; assay type: biochemical
T4 construct: made in house; host or cells: bacteria (pGEX-2T)
T4 sequence (Q9DC28 whole entry): as the sequence (Q06486 whole entry) above
Source text: CK1δTV1 and 2 (transcription variants 1 and 2) were PCR amplified from mouse cDNA (5′-primer TV1 and 2: 5′-[…]-3′, 3′-primer TV1: 5′-[…]-3′, 3′-primer TV2: 5′-[…]-3′) and cloned into pcDNA3.1/V5-His© TOPO® TA cloning vector (Invitrogen, Karlsruhe, Germany) before being subcloned into pGEX-2T expression vector via BamHI to generate plasmids pGEX-2T-mouse CK1δTV1 (FP1170) and pGEX-2T-mouse CK1δTV2 (FP1171).
Expression and purification of the GST-fusion proteins GST-mouse p53^1–64 (FP267), GST-rat CK1δ (FP449), GST-rat CK1δ^M82F (FP1153), GST-mouse CK1δTV1 (FP1170), and GST-mouse CK1δTV2 (FP1171) was carried out as described elsewhere (Wolff et al. [2005]). Expression of fusion proteins FP1170 and 1171 was either performed at 37°C for 2 h, or at 15°C for 14 h. FP449 and FP1153 were always expressed at 15°C for 14 h.
In vitro kinase assays were carried out in the presence of various potential inhibitors of CK1δ at an ATP concentration of 0.01 mM and dimethyl sulfoxide (DMSO) solvent control as described previously (Knippschild et al. [1996]). Where indicated higher ATP concentrations (0.05, 0.1, 0.25 and 0.5 mM) were used. The fusion protein GST-mouse p53^1−64 (FP267) was used as substrate. Recombinant CK1δ kinase domain (CK1δkd, NEB, Frankfurt am Main, Germany), GST-rat CK1δ (FP449), GST-rat CK1δ^M82F (FP1153), GST-mouse CK1δTV1, GST-mouse CK1δTV2 and recombinant human CK1ε (Invitrogen, Karlsruhe, Germany) were used as sources of enzyme. Phosphorylated proteins were separated by SDS-PAGE and the protein bands were visualized on dried gels by autoradiography. The phosphorylated protein bands were excised and quantified by Cherenkov counting.

HT1080 cells = experiment: Flow cytometry cell cycle analysis; assay type: cell-based, human; conditions: HT1080, 2 or 4 μM, 48 h (data not shown)
Protocol: (§1) Frwt648 cells [generated by SV40-transformation of F111 cells; (Hinzpeter and Deppert [1987])] and mKSA cells [SV40-transformed Balb/c fibroblasts; (Kit et al. [1969])] were grown in Dulbecco’s modified Eagle’s medium (DMEM) supplemented with 5% fetal calf serum (FCS; Biochrom, Berlin, Germany). The fibrosarcoma cell line HT1080 (Rasheed et al. [1974]) was grown in DMEM containing 10% FCS and 2 mM glutamine while both the prostate cancer cell line DU-145 (Stone et al. [1978]) and the ovary tissue cancer cell line OVCAR-3 (Hamilton et al. [1983]) were maintained in RPMI-1640 supplemented with 10% FCS. The pancreatic cancer cell line Colo357 (Morgan et al. [1980]) was grown in DMEM/RPMI (1:1) and the colon adenocarcinoma cell line SW480 (Leibovitz et al. [1976]) in Leibovitz L-15 medium, both containing 10% FCS and 2 mM glutamine. All media were supplemented with 100 U/ml penicillin and 100 μg/ml streptomycin (Gibco, Karlsruhe, Germany) and all cell lines were grown at 37°C in a humidified 5% carbon dioxide atmosphere.
(§2) Subconfluent Frwt648, mKSA, Colo357, OVCAR-3, HT1080, DU-145 and SW480 cells were treated with 2 or 4 μM of compounds 5 or 6 for 48 h. Untreated and DMSO treated cells served as control. Cells were harvested, washed once with phosphate-buffered saline (PBS), and prepared for cell cycle analysis using the “Cycle Test Plus Kit” (BD, San Jose, USA). Cell cycle profiles were obtained using a FACScan flow cytometer and CellQuest software (BD Biosciences, San Jose, USA).

SW480 cells = experiment: Flow cytometry cell cycle analysis; assay type: cell-based, human; conditions: SW480, 2 or 4 μM, 48 h (data not shown)
Protocol: as §1, §2

OVCAR-3 cells = experiment: Flow cytometry cell cycle analysis; assay type: cell-based, human; conditions: 48 h
Protocol: as §1, §2

DU-145 cells = experiment: Flow cytometry cell cycle analysis; assay type: cell-based, human; conditions: 48 h (data not shown); for dead cells: DU-145, 2 or 4 μM
Protocol: as §1, §2

Colo357 cells = experiment: Flow cytometry cell cycle analysis; assay type: cell-based, human; conditions: Colo357, 2 or 4 μM, 48 h
Protocol: as §1, §2

IRAK3 = target: T5, IRAK3 (Homo sapiens, UniProt Q9Y616); experiment: KINOMEscan selectivity profiling; assay type: binding; conditions: remaining relative to controls, read-out: %Ctrl @ 10 μM (IRAK3)
T5 construct: purchased Ambit Biosciences Cooperation, San Diego, USA (KINOMEscan)
T5 sequence (Q9Y616 whole entry): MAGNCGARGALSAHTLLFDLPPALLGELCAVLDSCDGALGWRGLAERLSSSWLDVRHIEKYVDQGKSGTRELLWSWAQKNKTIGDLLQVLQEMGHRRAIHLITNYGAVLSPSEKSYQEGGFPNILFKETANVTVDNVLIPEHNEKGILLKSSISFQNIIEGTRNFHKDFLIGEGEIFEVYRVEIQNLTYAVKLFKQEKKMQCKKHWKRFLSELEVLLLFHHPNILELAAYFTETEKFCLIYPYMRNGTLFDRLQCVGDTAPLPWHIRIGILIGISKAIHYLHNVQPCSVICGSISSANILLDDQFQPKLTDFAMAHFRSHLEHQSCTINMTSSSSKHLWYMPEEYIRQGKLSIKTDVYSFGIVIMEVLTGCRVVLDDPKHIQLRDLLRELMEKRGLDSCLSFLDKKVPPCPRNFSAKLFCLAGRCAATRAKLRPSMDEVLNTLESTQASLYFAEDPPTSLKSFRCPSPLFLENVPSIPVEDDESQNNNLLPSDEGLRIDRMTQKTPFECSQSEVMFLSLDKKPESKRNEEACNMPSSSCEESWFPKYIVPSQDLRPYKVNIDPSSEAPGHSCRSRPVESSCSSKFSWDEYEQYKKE
Protocol: (§3) KINOMEscan™ was performed to determine binding constants of coumpound 5 to 442 eukaryotic kinases by Ambit Biosciences Cooperation, San Diego, USA.

FLT3(D835Y) = target: T6, FLT3(D835Y) (Homo sapiens, UniProt P36888, D835Y); experiment: KINOMEscan selectivity profiling; assay type: binding; conditions: remaining relative to controls, read-out: %Ctrl @ 10 μM (FLT3(D835Y))
T6 construct: purchased Ambit Biosciences Cooperation, San Diego, USA (KINOMEscan)
Protocol: as §3

[1] = 0.01 mM ATP, substrate GST-mouse p53^1-64, mean ± SD
[2] = 0.01 mM ATP, substrate GST-mouse p53^1-64, mean ± SD, read-out: IC50 (μM) GST-CK1δ TV1

IC50 (CK1δkd; [1]) [µM]	inhibition of CK1δkd in initial screen (CK1δkd)	mode of inhibition (CK1δkd)	IC50 (GST-rat CK1δ; [1]) [µM]	GST-wt CK1δ activity in the presence of inhibitor (GST-rat CK1δ)	IC50 (human CK1ε; [1])	inhibition of CK1ε in initial screen (human CK1ε)	IC50 (GST-mouse CK1δTV1; [2]) [µM]	higher affinity towards CK1δ than to CK1ε (GST-rat CK1δ; ratio of IC50 values CK1ε / CK1δ)	remaining binding at 10 µM (IRAK3) [%]	remaining binding at 10 µM (FLT3(D835Y)) [%]	IC50 (GST-mouse CK1δTV1; IC50 CK1δTV1, 2 h, enzyme induced for 2 h at 37°C) [µM]	IC50 (GST-mouse CK1δTV1; enzyme induced for 14 h at 15°C, read-out: IC50 CK1δTV1, 14 h) [µM]	SMILES	dead cells (HT1080 cells) [%]	dead cells (SW480 cells) [%]	cells died upon treatment (OVCAR-3 cells; OVCAR-3, 4 μM) [%]	dead cells (DU-145 cells) [%]	effect on cell cycle distribution (Colo357 cells)	effect on cell cycle distribution (OVCAR-3 cells; OVCAR-3, 2 or 4 μM)	susceptibility of DU-145 to treatment (DU-145 cells; 2 or 4 μM)
0.085 ± 0.01	significant inhibition	ATP competitive inhibitors	0.042 ± 0.05	clearly decreased	0.0326 µM and 0.033 µM	significant inhibition	0.048 ± 0.02	–	–	–	–	–	O=C(Nc1nc2cc(Cl)c(F)cc2[nH]1)c1csc(NC(=O)c2ccccc2OC(F)(F)F)n1 [Compound 6, N-(5-Chloro-6-fluoro-1H-benzo[d]imidazol-2-yl)-2-(2-(trifluoromethoxy)benzamido)thiazole-4-carboxamide]	≤ 20	≤ 20	39	≤ 20	more cells appeared to be in the G1 phase	–	–
–	significant inhibition	ATP competitive inhibitors	–	clearly decreased	–	significant inhibition	0.022 ± 0.02	fivefold	27	10	0.066	0.023	O=C(Nc1nc2ccc(C(F)(F)F)cc2[nH]1)c1csc(NC(=O)c2ccccc2OC(F)(F)F)n1 [Compound 5, 2-(2-(Trifluoromethoxy)benzamido)-N-(6-(trifluoromethyl)-1H-benzo[d]imidazol-2-yl)thiazole-4-carboxamide]	≤ 20	≤ 20	–	≤ 20	more cells appeared to be in the G1 phase	slight increase of cells in the G2 phase	unsusceptible
